For series [1] the following is noted: 2 mg/ml/kg into the duodenum. Here is the method: (§1) Briefly, the breath was collected at a rate of about 100 to 300 ml/min using a stroke pump (Variable Stroke Pump VS-500; Shibata Kagaku Kogyo), and the CO2 concentration therein was maintained at about 3%. A Perma Pure Drier (MD-050-12P; Perma Pure INC.) was set between the rat holder and the stroke pump to remove moisture from the breath. When the CO2 concentration was stabilized, the rat under anesthesia was subjected to a laparotomy. After ligation of the pylorus, [1,4-^13C]-succinic acid solution was injected into the duodenum with an injection syringe (1 ml) to thereby achieve administration into the duodenum. A breath sample ([…]) collected with the syringe was sealed in a vacuum vial (10 ml) and subjected to automated analysis by GC-MS (Breath MAT) [FinniganMAT]. Δ^13C (‰) was calculated from δ^13C values which are ^13C values of the breath sample (i.e. differences from the standard substance PDB) using the following formula.
Falling out of small intestinal villi was induced in Wistar male rats (9 week-old; n=4; Nippon Charles River) by repeatedly injecting injectable methotrexate (MTX; Takeda Chemical Industries) dissolved in physiological saline between the back and the skull subcutaneously at 2.5 mg/kg/day (see J. Nutr. Vol. 126, p. 2519 (1996); Scand. J. Gastroenterol. Vol. 39 p. 1015 (2004)). The conditions of the repeated administration were 3 day administration, 2 day interval and 3 day administration (total administration period: 6 days) (MTX administration group; n=4). Non-administration group (n=2) was also tested as control group.
On day 9 after the start of MTX administration, [1,4-^13C]-succinic acid (ICON) was administered into the duodenum of overnight-fasted rats under anesthesia at 2 mg/ml/kg to perform a breath test.

The conditions of series [2]: 4 mg/ml/kg femoral vein.
Procedure: (§2) Briefly, STZ was administered to 2-day postnatal rats subcutaneously at a dose of 90 mg/kg. STZ was dissolved in citrate buffer (pH 4.5) in advance, and administration was completed within 5 minutes after the dissolving. Two days thereafter, a blood sample was collected from the heart and subjected to measurement of casual plasma glucose with Terumo Mediace (blood glucose measuring set). Individuals showing a level of 275 mg/dl or more were selected.
(§3) The time course of the increase ratio of ^13C concentration (Δ^13C (‰)) in exhaled CO2 after administration was examined for 20 minutes, and plotted every 5 minutes.
The conditions of series [3]: 2 mg/ml/kg into the duodenum. As for the experimental part:
Overnight-fasted Wistar male rats (8 week-old; Nippon Charles River) were subjected to a laparotomy under anesthesia and treated as follows: (1) ligated at 3 cm from the pylorus (n=1), (2) ligated at 6 cm from the pylorus (n=1), and (3) not ligated (no treatment) (n=2).
[1,4-^13C]-succinic acid (ICON) was administered into the duodenum upstream of the ligation at 2 mg/ml/kg. The breath after the administration was collected.
as §1
Δ^13C (‰)=(δ^13C)t min−(δ^13 C) 0 min (Formula 1)
• Apparatus: Breath MAT plus (Finnigan) • Carrier gas: He • Measured ions: m/z=44, 45, 46
This is another data set of the same source.

Series [4] in a line: 13C-labeled sodium acetate breath test, diabetic model rats (nSTZ group) versus control group. Conditions: 10 mg/ml/kg femoral vein.
Procedure: as §2, §3
For series [5] the following is noted: rat, in vivo, 2000 mg/kg; cited from earlier work.

Data on 3 compounds can be found in patent US20090180956A1, “DIAGNOSTIC FOR EVALUATING GASTRIC EVACUATION FUNCTION AND/OR SMALL INTESTINAL ABSORPTION FUNCTION” (priority 2006, published 2009).

Where two headings read alike, the source gives them in different places.

As to `O=[13C](O)CC[13C](=O)O` [[1,4-^13C]-succinic acid], the “increase ratio of 13C concentration (Δ13C) in exhaled CO2” value (“increase ratio … (Δ13C) in exhaled CO2” for short) in series [1] (MTX administration group, at 15 minutes) was 68±37 ‰; in series [1] (control group (MTX non-administration), at 10 minutes) it was 154 ‰; in series [1] (control group (MTX non-administration), at 20 minutes), 81 ‰; in series [2] (control group, at 5 minutes), 193±20 ‰; in series [2] (control group, at 20 minutes) it was 99±4 ‰; in series [2] (nSTZ group, at 5 minutes) it was 202±28 ‰. The “increase ratio … (Δ13C) in exhaled CO2” value in series [2] (nSTZ group, at 20 minutes) was 93±4 ‰; in series [3] (not ligated rats, at 6 minutes), 130 ‰; in series [3] (not ligated rats, at 15 minutes) it was 95 ‰; in series [3] (rat ligated at 3 cm from the pylorus, at 4 minutes), 14 ‰; in series [3] (rat ligated at 3 cm from the pylorus, at 6 minutes), 30 ‰; in series [3] (rat ligated at 3 cm from the pylorus, at 16 minutes), 71 ‰. For the same compound, the “increase ratio … (Δ13C) in exhaled CO2” value in series [3] (rat ligated at 6 cm from the pylorus, at 4 minutes) is listed as 33 ‰; in series [3] (rat ligated at 6 cm from the pylorus, at 6 minutes) it was 57 ‰; in series [3] (rat ligated at 6 cm from the pylorus, at 16 minutes), 96 ‰. Moreover, in series [2] (20 minutes breath test), the “difference in Δ13C between control group and nSTZ group” value is listed as “no difference was observed”.
Turning to `C[13C](=O)[O-].[Na+]` [[1-^13C]-sodium acetate], the “increase ratio … (Δ13C) in exhaled CO2” value in series [4] (control group, at 5 minutes) is 154±11 ‰; in series [4] (control group, at 20 minutes) it was 153±5 ‰; in series [4] (nSTZ group, at 5 minutes), 214±30 ‰; in series [4] (nSTZ group, at 20 minutes), 133±2 ‰. Moreover, the “difference in Δ13C between control group and nSTZ group” value in series [4] (values at 5 minutes and at 20 minutes) is “Significant difference (p<0.005)”.
Take `O=C(O)CCC(=O)O` [disodium succinate hexahydrate]: the “abnormalities in single administration toxicity test” value in series [5] was “does not cause abnormalities”.
